Organism: Rattus norvegicus
Experiment: DrugMatrix - Regimen: Daily Repeat
Format: toxicity, organism-based, Sprague-Dawley
Design: regimen Daily Repeat, gender Male, age 6-8 weeks
Conditions: in vivo, sc, route subcutaneous, […]; for ABSOLUTE BASOPHIL / ABSOLUTE EOSINOPHIL / ABSOLUTE LYMPHOCYTE / ABSOLUTE MONOCYTE / ABSOLUTE SEGMENTED NEUTROPHIL / BASOPHIL / EOSINOPHIL / ERYTHROCYTE COUNT / HEMATOCRIT / HEMOGLOBIN / LEUKOCYTE COUNT / LYMPHOCYTE / MEAN CORPUSCULAR HEMOGLOBIN / MEAN CORPUSCULAR HEMOGLOBIN CONCENTRATION / MEAN CORPUSCULAR VOLUME / MONOCYTE / NEUTROPHIL / NUCLEATED RED BLOOD CELLS / PLATELET COUNT: tissue Blood; for ALANINE AMINOTRANSFERASE / ALBUMIN / ALKALINE PHOSPHATASE / ASPARTATE AMINOTRANSFERASE / BLOOD UREA NITROGEN / CARBON DIOXIDE / CHLORIDE / CHOLESTEROL / CREATINE PHOSPHOKINASE / CREATININE / GLUCOSE / LACTATE DEHYDROGENASE / LIPASE / PHOSPHORUS / POTASSIUM / SODIUM / TOTAL BILIRUBIN / TOTAL PROTEIN / URIC ACID: tissue Plasma
[1] = 0 mg/kg, 72 h, dose level Control, time 3 day
[2] = 0 mg/kg, 120 h, dose level Control, time 5 day
[3] = 29 mg/kg, 72 h, dose level Low, time 3 day

Nc1nc2c(ncn2CCC(CO)CO)c(=O)[nH]1 [PENCICLOVIR]
ABSOLUTE BASOPHIL [1]: 0 CELLS/uL
ABSOLUTE EOSINOPHIL [1]: 42.67 CELLS/uL
ABSOLUTE LYMPHOCYTE [1]: 10202 CELLS/uL
ABSOLUTE MONOCYTE [1]: 261.5 CELLS/uL
ABSOLUTE SEGMENTED NEUTROPHIL [1]: 2193.83 CELLS/uL
BASOPHIL [1]: 0%
EOSINOPHIL [1]: 0.33%
ERYTHROCYTE COUNT [1]: 5.63 x10E6/uL
HEMATOCRIT [1]: 35.35%
HEMOGLOBIN [1]: 13.07 G/DL
LEUKOCYTE COUNT [1]: 12.7 x10E3/uL
LYMPHOCYTE [1]: 81.17%
MEAN CORPUSCULAR HEMOGLOBIN [1]: 23.23 pg
MEAN CORPUSCULAR HEMOGLOBIN CONCENTRATION [1]: 36.97 G/DL
MEAN CORPUSCULAR VOLUME [1]: 62.82 fL
MONOCYTE [1]: 2%
NEUTROPHIL [1]: 16.5%
NUCLEATED RED BLOOD CELLS [1]: 0 /100WBC
PLATELET COUNT [1]: 1180.33 x10E3/uL
ALANINE AMINOTRANSFERASE [1]: 48.67 u/L
ALBUMIN [1]: 4.08 G/DL
ALKALINE PHOSPHATASE [1]: 360.67 u/L
ASPARTATE AMINOTRANSFERASE [1]: 85.5 u/L
BLOOD UREA NITROGEN [1]: 17.83 mg/dL
CARBON DIOXIDE [1]: 26.17 mmol/L
CHLORIDE [1]: 101.83 MEQ/L
CHOLESTEROL [1]: 71 mg/dL
CREATINE PHOSPHOKINASE [1]: 515.17 u/L
CREATININE [1]: 0.22 mg/dL
GLUCOSE [1]: 192.5 mg/dL
LACTATE DEHYDROGENASE [1]: 214.67 u/L
LIPASE [1]: 8.5 u/L
PHOSPHORUS [1]: 12.95 mg/dL
POTASSIUM [1]: 6.39 MEQ/L
SODIUM [1]: 142.38 MEQ/L
TOTAL BILIRUBIN [1]: 0.18 mg/dL
TOTAL PROTEIN [1]: 5.95 G/DL
URIC ACID [1]: 1.83 mg/dL
ABSOLUTE BASOPHIL [2]: 0 CELLS/uL
ABSOLUTE EOSINOPHIL [2]: 188.5 CELLS/uL
ABSOLUTE LYMPHOCYTE [2]: 12360.83 CELLS/uL
ABSOLUTE MONOCYTE [2]: 64.33 CELLS/uL
ABSOLUTE SEGMENTED NEUTROPHIL [2]: 1986.33 CELLS/uL
BASOPHIL [2]: 0%
EOSINOPHIL [2]: 1.33%
ERYTHROCYTE COUNT [2]: 5.52 x10E6/uL
HEMATOCRIT [2]: 35.82%
HEMOGLOBIN [2]: 13.25 G/DL
LEUKOCYTE COUNT [2]: 14.6 x10E3/uL
LYMPHOCYTE [2]: 84.5%
MEAN CORPUSCULAR HEMOGLOBIN [2]: 24.05 pg
MEAN CORPUSCULAR HEMOGLOBIN CONCENTRATION [2]: 36.98 G/DL
MEAN CORPUSCULAR VOLUME [2]: 64.97 fL
MONOCYTE [2]: 0.5%
NEUTROPHIL [2]: 13.67%
NUCLEATED RED BLOOD CELLS [2]: 0 /100WBC
PLATELET COUNT [2]: 1297.83 x10E3/uL
ALANINE AMINOTRANSFERASE [2]: 51.17 u/L
ALBUMIN [2]: 4.08 G/DL
ALKALINE PHOSPHATASE [2]: 393.17 u/L
ASPARTATE AMINOTRANSFERASE [2]: 111 u/L
BLOOD UREA NITROGEN [2]: 18.17 mg/dL
CARBON DIOXIDE [2]: 25 mmol/L
CHLORIDE [2]: 105.17 MEQ/L
CHOLESTEROL [2]: 65.5 mg/dL
CREATINE PHOSPHOKINASE [2]: 911.5 u/L
CREATININE [2]: 0.21 mg/dL
GLUCOSE [2]: 183 mg/dL
LACTATE DEHYDROGENASE [2]: 189 u/L
LIPASE [2]: 8.33 u/L
PHOSPHORUS [2]: 12.78 mg/dL
POTASSIUM [2]: 6.05 MEQ/L
SODIUM [2]: 144.57 MEQ/L
TOTAL BILIRUBIN [2]: 0.25 mg/dL
TOTAL PROTEIN [2]: 5.83 G/DL
URIC ACID [2]: 1.58 mg/dL
ABSOLUTE BASOPHIL [3]: 0 CELLS/uL
ABSOLUTE EOSINOPHIL [3]: 232.67 CELLS/uL
ABSOLUTE LYMPHOCYTE [3]: 11739.33 CELLS/uL
ABSOLUTE MONOCYTE [3]: 92.67 CELLS/uL
ABSOLUTE SEGMENTED NEUTROPHIL [3]: 1668.67 CELLS/uL
BASOPHIL [3]: 0%
EOSINOPHIL [3]: 1.67%
ERYTHROCYTE COUNT [3]: 5.23 x10E6/uL
HEMATOCRIT [3]: 33.7%
HEMOGLOBIN [3]: 12.47 G/DL
LEUKOCYTE COUNT [3]: 13.73 x10E3/uL
LYMPHOCYTE [3]: 85.67%
MEAN CORPUSCULAR HEMOGLOBIN [3]: 23.87 pg
MEAN CORPUSCULAR HEMOGLOBIN CONCENTRATION [3]: 36.97 G/DL
MEAN CORPUSCULAR VOLUME [3]: 64.5 fL
MONOCYTE [3]: 0.67%
NEUTROPHIL [3]: 12%
NUCLEATED RED BLOOD CELLS [3]: 0 /100WBC
PLATELET COUNT [3]: 1318 x10E3/uL
ALANINE AMINOTRANSFERASE [3]: 47 u/L
ALBUMIN [3]: 4.03 G/DL
ALKALINE PHOSPHATASE [3]: 451.67 u/L
ASPARTATE AMINOTRANSFERASE [3]: 88.67 u/L
BLOOD UREA NITROGEN [3]: 15 mg/dL
CARBON DIOXIDE [3]: 28 mmol/L
CHLORIDE [3]: 104.67 MEQ/L
CHOLESTEROL [3]: 64 mg/dL
CREATINE PHOSPHOKINASE [3]: 727.67 u/L
CREATININE [3]: 0.21 mg/dL
GLUCOSE [3]: 162.33 mg/dL
LACTATE DEHYDROGENASE [3]: 101 u/L
LIPASE [3]: 8.33 u/L
PHOSPHORUS [3]: 13 mg/dL
POTASSIUM [3]: 6.56 MEQ/L
SODIUM [3]: 146.33 MEQ/L
TOTAL BILIRUBIN [3]: 0.2 mg/dL
TOTAL PROTEIN [3]: 5.9 G/DL
URIC ACID [3]: 1.7 mg/dL

From ChEMBL document CHEMBL3885881, “DrugMatrix”
